The text below walks through data of PMC6266505, “Limonoids Containing a C1–O–C29 Moiety: Isolation, Structural Modification, and Antiviral Activity” (Marine Drugs, 2018).

Molecules are shown by their SMILES. Where two headings read alike, the source gives them in different places.

One series relates to IAV. As to the kind of experiment: Anti-IAV bioassay. It is filed as cell-based. As to conditions: Influenza A virus, read-out: Inhibition Rate (%) against IAV, positive control.
Another series has as its system influenza A virus (IAV). Conditions: cited from earlier work.
Series [1] relates to HIV-1. Conditions: read-out: IC50 against HIV-1; cited from earlier work.
The conditions of series [2]: cited from earlier work.
Another series can be described thus: in vitro. Conditions: human.
In series [3] the test system is HIV-1. As to the kind of experiment: microbe, parasite or virus in culture.

Regarding `NC(=O)c1ncn([C@@H]2O[C@H](CO)[C@@H](O)[C@H]2O)n1` [ribavirin], the inhibition at 60 µM in the series with IAV worked out at 87.5 ± 2.86%.
With `COC(=O)C[C@H]1[C@@]2(C)C[C@]3(O)[C@H](C(=O)[C@H]2OC(C)=O)C2=C4CC(=O)O[C@@H](c5ccoc5)[C@]4(C)CC[C@@H]2[C@]13C` [thaixylomolin K], in the series on influenza A virus (IAV), the “antiviral activity against influenza A virus (IAV), in words” value (from here on “antiviral activity”) is listed as “moderate antiviral activity”.
Regarding `COC(=O)C[C@@H]1[C@@]2(C)[C@H]3CC[C@]4(C)C(=C3[C@@]3(O)[C@@H](OC(C)=O)C(=O)[C@]1(C)C[C@@]23O)CC(=O)O[C@H]4c1ccoc1` [thaixylomolin I], the “antiviral activity” value in the series on influenza A virus (IAV) is given as “moderate antiviral activity”. In addition, the IC50 in the series on influenza A virus (IAV) (read-out: IC50 against IAV) is 77.1 ± 8.7 µM.
In the case of `CC[C@H](C)C(=O)O[C@@H]1C(=O)[C@@]2(OC(=O)C(C)C)[C@@]3(O)C[C@@]1(C)[C@H](CC(=O)OC)[C@@]3(C)[C@H]1CC[C@@]3(C)[C@H](c4ccoc4)OC(=O)C[C@]34O[C@]142` [Krishnolide A], the IC50 in the series with HIV-1 [1] is 17.4 ± 1.65 µM. Moreover, the CC50 in series [2] is 78.5 ± 1.69 µM.
Turning to `COC(=O)C[C@H]1[C@@]2(C)C[C@]3(O)[C@H](C(=O)[C@H]2OC(C)=O)C2=C(CC[C@]4(C)C2=CC(=O)O[C@H]4c2ccoc2)[C@]13C` [thaixylomolin M], the “antiviral activity” value with influenza A virus (IAV) is listed as “moderate antiviral activity”.
The compound `C/C=C(\C)C(=O)O[C@@H]1[C@@H]2C=C3[C@@H]4CC(=O)O[C@@H](c5ccoc5)[C@]4(C)CC[C@@H]3[C@]3(C)[C@@H](CC(=O)OC)[C@]1(C)CO[C@]23O` [Compound 6, granatumin L] gave a CC50 in “in vitro” of more than 100 µM. Moreover, the IC50 in the series with HIV-1 [3] (Human immunodeficiency virus 1, SUP-T1, read-out: IC50 Value (μM) against HIV-1) was 19.23 ± 0.12 µM. The inhibition at 20 µM in the series with HIV-1 [3] (Human immunodeficiency virus 1, SUP-T1, read-out: Inhibition Rate (20.0 μM) (%) against HIV-1) came to 67.1 ± 3.04%.
